Calls of active or inactive are those of the source. No rule for the calls is given here.

Chain of Ubiquitin carboxyl-terminal hydrolase 10 (Homo sapiens) (Q14694 whole entry, looked up): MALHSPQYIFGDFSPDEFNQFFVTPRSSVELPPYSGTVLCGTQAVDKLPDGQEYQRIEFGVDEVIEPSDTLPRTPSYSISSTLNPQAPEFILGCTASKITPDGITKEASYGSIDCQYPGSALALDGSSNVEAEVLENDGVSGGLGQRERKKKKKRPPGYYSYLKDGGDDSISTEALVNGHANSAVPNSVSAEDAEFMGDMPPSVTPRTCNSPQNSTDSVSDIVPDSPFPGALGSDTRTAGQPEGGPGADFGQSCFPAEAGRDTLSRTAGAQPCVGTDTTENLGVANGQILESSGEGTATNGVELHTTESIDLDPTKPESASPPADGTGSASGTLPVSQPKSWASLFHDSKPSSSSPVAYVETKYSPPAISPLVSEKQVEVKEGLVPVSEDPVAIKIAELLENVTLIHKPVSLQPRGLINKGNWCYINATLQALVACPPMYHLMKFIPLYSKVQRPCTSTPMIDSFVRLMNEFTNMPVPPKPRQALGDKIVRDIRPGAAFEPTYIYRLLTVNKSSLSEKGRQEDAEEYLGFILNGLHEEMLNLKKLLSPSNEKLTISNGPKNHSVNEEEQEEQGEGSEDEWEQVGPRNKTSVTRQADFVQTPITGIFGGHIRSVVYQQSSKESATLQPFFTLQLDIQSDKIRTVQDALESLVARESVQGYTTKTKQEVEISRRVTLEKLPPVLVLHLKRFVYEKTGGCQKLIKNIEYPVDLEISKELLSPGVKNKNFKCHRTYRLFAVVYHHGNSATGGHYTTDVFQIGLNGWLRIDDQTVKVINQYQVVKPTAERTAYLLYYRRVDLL

The test concerns the target Ubiquitin carboxyl-terminal hydrolase 10 (Homo sapiens) (UniProt Q14694). As to the kind of experiment: primary hit verification, biochemical, ubiquitin-specific protease 10 deubiquitylase inhibitors, concentration-effect titration (AID 1645863).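 Also: potency values describe inhibition of USP10 cleavage of a fluorogenic ubiquitin substrate.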 The following applies: USP10 deubiquitinase enzymatic assay.
As a reminder, the IC50 is the point on the concentration scale where inhibition reaches its midpoint. Take `CSc1nc(N)c2c(n1)N[C@H]1OC[C@H](O)[C@H](O)[C@H]1N2`: the IC50 is > 40 µM (inactive).

In the case of `CCc1nc(SCC(=O)Nc2ccc(Cl)c(Cl)c2)c2oc3ccccc3c2n1`, the IC50 was 39.4 µM. For `O=C(Cn1cnc2cc([N+](=O)[O-])ccc2c1=O)NCc1ccc2c(c1)OCO2` the value was > 40 µM (inactive); for `N=C1/C(=C/c2cn(Cc3ccc(F)cc3)c3ccccc23)C(=O)N=C2SC(Cc3ccccc3)=NN12`, 17.4 µM; for `Cc1c(C#N)c2ccccc2n1CC(=O)NCc1ccc2c(c1)OCO2`, > 40 µM (inactive). `O=C(CCn1c(=O)c2sccc2n(Cc2ccc([N+](=O)[O-])cc2)c1=O)NCc1ccccc1`: the IC50 is > 40 µM (inactive). The result for `CCOC(=O)c1ccc(NC(=O)Cn2c(=O)n(CC(=O)NCc3ccco3)c(=O)c3ccccc32)cc1` reads 16.2 µM. The result for `CC(=O)[C@H]1c2c(c(O)c3c(O)cccc3c2-c2c3c(c(O)c4c(O)cccc24)C(=O)C[C@](C)(O)[C@H]3C(C)=O)C(=O)C[C@]1(C)O` reads 39.3 µM; that for `CC(C)CCCCCCCCCCC(=O)N(C)[C@H](CO)C(=O)N[C@H](C)C(=O)NCC(=O)N(C)C1C(=O)N[C@@H](C)C(=O)NC(C(=O)O)Cc2ccc(O)c(c2)-c2cc1ccc2O` (some centres not stated), 34.4 µM. `O=C(Nc1ccc(-n2cccc2)cc1)c1cccc([N+](=O)[O-])c1`: the IC50 was > 40 µM (inactive). For `CO/C=C/C(=O)c1cc2cnc3c(=N)cc(NC(C)=O)c([nH]1)c23` the value was “inactive”; for `CSc1cccc(NC(=O)c2cc(-c3cccnc3)n[nH]2)c1`, > 40 µM (inactive). For `O=C(c1cc(Cl)c(Cl)[nH]1)c1cc(Cl)cc(Cl)c1O` the value was 15.2 µM; for `COc1cc2c(cc1OC)-c1cc(Nc3ccc(Br)cc3)nc(=O)n1CC2`, 13.7 µM; for `CCOC(=O)N1CCC(NC(=O)c2cc(C(=O)Nc3ccc(S(=O)(=O)N4CCCCC4)cc3)ccc2CO)CC1`, > 40 µM (inactive). For `O=C(Cn1c(=O)n(CC2CCC(C(=O)NC3CCCC3)CC2)c(=O)c2ccccc21)NCCC1=CCCCC1` (configuration not stated) the value was > 40 µM (inactive). For `CCc1nnc(C(=O)Nc2ccc(C(=O)NCc3ccc(OC(C)C)cc3)cc2)s1`, the IC50 was > 40 µM (inactive).

As for `CCOC(=O)c1cc2c(ccn2-c2ccc(F)cc2)n1CC(=O)Nc1ccc2c(c1)OCCO2`, the IC50 is 30.3 µM. The result for `O=C(NCc1ccc(F)cc1)c1cccc(Nc2nc3ccccc3n3cnnc23)c1` reads 38 µM; that for `O=C(Cn1ncc2c(=O)oc3ccccc3c21)NCc1ccc2c(c1)OCO2`, > 40 µM (inactive). In the case of `COc1ccc2c(c1)CCc1c-2nc2ccccc2c1N1CCOCC1`, the IC50 was > 40 µM (inactive). For `Cc1ccc(NC(=O)Cc2nnc3cc(-c4nc(C)no4)ccn23)cc1` the value was 14.3 µM; for `Cc1ccc(NC(=O)Cn2cncc(-c3nc(-c4ccccc4)cs3)c2=O)cc1F`, 22.9 µM; for `O=C(COc1ccc(N2CC(C(=O)NCc3ccccc3)CC2=O)cc1)Nc1ccc(F)cc1` (configuration not stated), > 40 µM (inactive). With `O=S1(=O)CCN(CC2CCCO2)c2c(Oc3ccccc3)nc(F)c(Cl)c21` (configuration not stated), the IC50 is > 40 µM (inactive). The result for `Cc1ccccc1-n1ccc2nc(N3CCCC3)ncc2c1=O` reads > 40 µM (inactive).

As to `COc1ccc(Cl)cc1NC(=O)c1nc(-c2cn(-c3ccccc3)nn2)no1`, the IC50 is 14.1 µM. With `COc1ccc(-c2nc(Cn3nnc(C(=O)Nc4ccc(C)c(C)c4)c3N)c(C)o2)cc1`, the IC50 is 29.1 µM. The result for `O=C(Nc1ccncc1)c1cn(Cc2ccccc2)cc2c(=O)n(-c3ccccc3)nc1-2` reads > 40 µM (inactive). For `CC(C)=CCc1c(O)cc2c(c1C)OC(=O)c1c(C)c(Cl)c(O)c(CO)c1O2` the value was 15.9 µM; for `CCc1ccc(NC(=O)Cc2nnc3cc(-c4nc(C)no4)ccn23)cc1`, 12.7 µM; for `COc1ccc(Cl)cc1NC(=O)COC(=O)c1cc2ccccc2oc1=O`, 17.5 µM.

On to `CCCn1cc(-c2nc(-c3ccccn3)no2)c(=O)c2ccccc21`, for which the IC50 is > 40 µM (inactive).

Turning to `CC1(C(=O)NCc2ccc(F)cc2)Cn2nc(-c3ccco3)cc2C(=O)N1c1ccc2c(c1)OCCO2` (configuration not stated), the IC50 is > 40 µM (inactive). For `O=C(Nc1cc(F)c2nc(N3CCOCC3)ccc2c1)C1CC1` the value was > 40 µM (inactive); for `COc1ccc(CCN2COc3c(cc(Cl)c4cccnc34)C2)cc1OC`, > 40 µM (inactive).

With `C=C/C(C)=C/[C@@]1(C)SC(=O)C(C)=C1O`, the concentration for half-maximal inhibition (IC50) was 10.4 µM. For `COc1ccc(NC(=O)CNC(=O)c2ccc3nc(-n4cccc4)sc3c2)cc1` the value was > 40 µM (inactive); for `Cc1nnc(NC(=O)C2CC(=O)N(CCc3ccc(F)cc3)C2)s1` (configuration not stated), > 40 µM (inactive). For `CC(C)Cc1nc2sc3c(SCC(=O)N4CCC(C)CC4)ncnc3c2c2c1COC(C)(C)C2` the value was > 40 µM (inactive); for `CC(C)(C)C(=O)C1C2C(=O)N(c3ccc4c(c3)OCO4)C(=O)C2C2c3ccccc3C=CN12` (configuration not stated), > 40 µM (inactive). The result for `O=C(COc1ccc(N2CC(C(=O)NCc3ccc4c(c3)OCO4)CC2=O)cc1)Nc1ccc(Cl)cc1` (configuration not stated) reads 11.8 µM; that for `COc1ccc(Cl)cc1NC(=O)CSc1ncnc2nc[nH]c12`, 37.9 µM. For `COc1ccc([C@H]2Oc3cc(OC)cc(O)c3C(=O)[C@@H]2[C@@H]2C(=O)c3c(O)cc(O)cc3O[C@H]2c2ccc(OC)cc2)cc1`, the IC50 was 18.5 µM. The result for `CC(=O)O[C@@H](C/C=C(\C)C(=O)O)[C@@H](C)[C@H]1C[C@H](OC(C)=O)[C@@]2(C)C3=CC[C@H]4C(C)(C)[C@H](O)CC[C@]4(C)C3=CC[C@]12C` reads 18 µM. The result for `O=C(CSc1nnc2c3ccccc3nc(-c3ccco3)n12)N1CCCc2ccccc21` reads 3.82 µM. For `O=C1c2c(O)c(Cl)cc3c2[C@@]2(Oc4ccc(O)c5c4[C@]3(O2)[C@@H]2O[C@@H]2C5=O)[C@@H]2O[C@H]12` the value was 1.31 µM; for `Cc1sc2ccn(C)c(=O)c2c1C(=O)NC1CCCC1`, 27.5 µM; for `CCCc1ccc(C(=O)[C@@H]2[C@@H](C(=O)c3cccs3)N3c4ccc(C)cc4C(C)=C[C@@H]3[C@@]23C(=O)Nc2ccccc23)cc1`, > 40 µM (inactive).

Regarding `CN1CC(c2ncn[nH]2)c2cc(C(=O)NCc3cccc(F)c3)ccc21` (configuration not stated), the IC50 was > 40 µM (inactive). For the molecule `O=C1CC(c2nc3ccccc3n2CCOc2ccc(Cl)cc2)CN1c1ccccc1` (configuration not stated), the IC50 is 39.3 µM. The result for `COC(=O)c1ccc(C2c3[nH]c4ccccc4c3C[C@@H]3C(=O)N(c4ccc5c(c4)OCCO5)C(=O)N23)cc1` (some centres not stated) reads > 40 µM (inactive).

As for `COc1ccccc1C(=O)Nc1ccc(-c2nc3ccccc3o2)c(O)c1`, the IC50 was > 40 µM (inactive). Regarding `O=C(Nc1cccc(Br)c1)c1cc(-c2cccnc2)n[nH]1`, the IC50 is 19.9 µM. For `Cc1cccc(NC(=O)Nc2nnc(CC(=O)NCc3ccccc3)s2)c1` the value was 17.4 µM; for `Cc1ccc(NC(=O)Cn2c(=O)n(CC(=O)NCCc3ccccc3)c(=O)c3sccc32)cc1C`, 21 µM. The result for `Cc1ccc2c(CNCCC3=CCCCC3)c(C(=O)O)n(C)c2c1` reads > 40 µM (inactive); that for `Cc1ccc(NC(=O)Nc2nnc(CC(=O)NCc3ccccc3)s2)cc1F`, > 40 µM (inactive); that for `CN1CCc2c(C#N)c(N3CCOCC3)nc(NCC3CCCO3)c2C1` (configuration not stated), > 40 µM (inactive). Take `Cc1ccc2[nH]c(=O)c(-c3nc4ccc(C)cn4c3NCc3ccc(F)cc3)cc2c1`: the IC50 was 20.3 µM.

With `N#Cc1cn2c(nc1-c1ccc(Cl)cc1)nc1ccccc12`, the IC50 is 19.5 µM. The result for `O=C(Nc1cccc(-c2nc3cnccc3o2)c1)c1ccc(Br)o1` reads > 40 µM (inactive); that for `COc1cccc(NC(=O)C(Sc2cccc(NC(=O)c3ccccc3F)c2)c2ccccc2)c1` (configuration not stated), 33.6 µM; that for `Cc1ccc(Cn2cc(C(=O)Nc3ccccc3C(N)=O)ccc2=O)cc1`, 2.81 µM. The result for `Cc1ccc(CNC(=O)c2ccc3nn(CC(=O)Nc4ccccc4F)c(=O)n3c2)cc1` reads > 40 µM (inactive). For `Cc1nnc(-c2ccc3ccn(CC(=O)N4CCN(c5ccccc5)CC4)c3c2)o1` the value was > 40 µM (inactive); for `Cc1cccc(Cl)c1NC(=O)Nc1ccc(NC(=O)c2ccccc2O)cc1`, 13.2 µM. `O=C(CCCCn1c(=O)c2ccccc2n(CC(=O)Nc2ccc3c(c2)OCCO3)c1=O)NCc1ccco1`: the IC50 is 25.2 µM.

For the molecule `COc1cc(OC)cc(N2C(=O)N(CC(=O)c3ccc(Br)cc3)c3ccccc3S2(=O)=O)c1`, the IC50 was 13.8 µM. For `Cc1ccc(NC(=O)Nc2ccccc2OCc2cc(=O)n3cc(C)ccc3n2)cc1` the value was > 40 µM (inactive); for `Cc1ccc(Nc2nc3c(S(=O)(=O)c4ccccc4)nnn3c3ccccc23)c(C)c1`, > 40 µM (inactive); for `O=C(c1cccnc1)N1CCCC(Cc2cc(-c3ncc[nH]3)ncn2)C1` (configuration not stated), > 40 µM (inactive). The result for `O=C(/C=C/c1c(F)cccc1Cl)N1CCc2ccccc2C1` reads > 40 µM (inactive); that for `COc1ccc(CNC(=O)CN2C(=O)CC(c3ccccc3)=Nc3ccccc32)cc1`, > 40 µM (inactive).

As for `O=C(O)c1ccccc1C(=O)Nc1ccc(SC(C(=O)Nc2ccccc2Cl)c2ccccc2)cc1` (configuration not stated), the IC50 was 16.8 µM. The result for `Cc1ccc(NC(=O)Cc2nnc3c(-c4nc(C5CC5)no4)cccn23)cc1F` reads 31.5 µM. For `Cc1c(C)n(-c2ccccc2)c2ncn(CC(=O)NCc3cccc(F)c3)c(=O)c12` the value was > 40 µM (inactive); for `O=C(CCSc1ccc(Cl)cc1)c1cccs1`, > 40 µM (inactive). `Cc1cc(Cl)ccc1NC(=O)c1cc(-c2ccncc2)n[nH]1`: the IC50 is > 40 µM (inactive). Turning to `COc1ccc(-c2noc(C3(c4ccc(F)cc4)CCOCC3)n2)cc1`, the IC50 was > 40 µM (inactive). For `Cc1cc(NS(=O)(=O)c2ccc(NC(=O)COc3ccc(Cl)cc3)cc2)no1` the value was > 40 µM (inactive).

For the molecule `Cc1cccc2nc(CSc3nc4ccc([N+](=O)[O-])cc4[nH]3)cn12`, the IC50 is 19.8 µM.
